Laboratory results taken from patent publication US11160785B2, “Methods and compositions for improving cognitive function” (AgeneBio, Inc., priority 2013, dated 2021).

Key:
aged-impaired rats [1] = assay: Radial Arm Maze task, acute brivaracetam or seletracetam (Example 4); conditions: rat, in vivo
MAM-treated rats = conditions: cited from earlier work
aged-impaired rats [2] = assay: water maze task after chronic treatment (Example 4); assay type: in vivo, rat; conditions: brivaracetam 2 mg/kg/day, osmotic mini-pump
Source text: Another cognitive test that may be used to assess the effects of a test compound on the cognitive impairment of a CNS disorder model animal is the Morris water maze. A water maze is a pool surrounded with a novel set of patterns relative to the maze. […] The subject is trained to locate a submerged escape platform hidden underneath the surface of the pool. During the training trial, a subject is released in the maze (pool) from random starting positions around the perimeter of the pool. The starting position varies from trial to trial. […] After a delay period following the last training trial, a retention test in the absence of the escape platform is given to assess spatial memory. The subject's level of preference for the location of the (now absent) escape platform, as measured by, e.g., the time spent in that location or the number of crossings of that location made by the mouse, indicates better spatial memory, i.e., treatment of cognitive impairment. The preference for the location of the escape platform under different treatment conditions, can then be compared for efficacy of the test compound in treating cognitive impairment associated with CNS disorders.
The radial arm maze experiments used acute administration of seletracetam (0-4 mg/kg), brivaracetam (0-4 mg/kg), or saline vehicle given by intraperitoneal injection (in a volume of 1 ml/kg) 30-40 min prior to test sessions. In the chronic treatment experiment, memory-impaired aged rats were implanted subcutaneously in the intrascapular region with osmotic mini-pumps (ALZET, Durect Corporation, Cupertino, Calif.) with brivaracetam (2 mg/kg/day) or saline vehicle starting two weeks prior to assessment in the water maze.
Rats were trained and tested in a novel water maze environment to assess the effect of drug treatment. The water maze used here was housed in a different building and was surrounded by curtains with a novel set of patterns relative to the maze used for initial assessment of cognitive status. The training protocol consisted of 6 trials per day for 2 days to locate a submerged escape platform. […]

aged-impaired rats (AI) = assay type: in vivo, rat; conditions: rat, in vivo
Method: FIG. 1 depicts the effects of administering levetiracetam on the spatial memory retention of ten aged-impaired rats (AI) in an eight-arm Radial Arm Maze (RAM) test. Six treatment conditions are employed: vehicle control, levetiracetam (1.25 mg/kg/day), levetiracetam (2.5 mg/kg/day), levetiracetam (5 mg/kg/day), levetiracetam (10 mg/kg/day) and levetiracetam (20 mg/kg/day). In the RAM task used, there is a one-hour delay between presentation of a subset of arms (5 arms available and 3 arms blocked) and completion of the eight-arm win-shift task (eight arms available). Rats are pre-treated 30-40 minutes before daily trials with a one-time drug/control treatment. The number of errors made by the rats during the retention phase is used as a measure of spatial memory retention. Errors are defined as instances when rats enter an arm from which food has already been retrieved in the pre-delay component of the trial or when rats re-visit an arm in the post-delay session that had already been visited. Paired t-tests are used to compare the number of errors between different doses of levetiracetam and vehicle control. […]
A Radial Arm Maze (RAM) behavioral task is one example of a cognitive test, specifically testing spacial memory (Chappell et al. Neuropharmacology 37: 481-487, 1998). The RAM apparatus consists of, e.g., eight equidistantly spaced arms. A maze arm projects from each facet of a center platform. A food well is located at the distal end of each arm. Food is used as a reward. Blocks can be positioned to prevent entry to any arm. Numerous extra maze cues surrounding the apparatus may also be provided. After habituation and training phases, spatial memory of the subjects may be tested in the RAM under control or test compound-treated conditions. As a part of the test, subjects are pretreated before trials with a vehicle control or one of a range of dosages of the test compound. At the beginning of each trial, a subset of the arms of the eight-arm maze is blocked. Subjects are allowed to obtain food on the unblocked arms to which access is permitted during this initial “information phase” of the trial. Subjects are then removed from the maze for a delay period, e.g., a 60 second delay, a 15 minute delay, a one-hour delay, a two-hour delay, a six hour delay, a 24 hour delay, or longer) between the information phase and the subsequent “retention test,” during which the barriers on the maze are removed, thus allowing access to all eight arms. […] The identity and configuration of the blocked arms vary across trials. The number of “errors” the subjects make during the retention test phase is tracked. An error occurs in the trial if the subjects entered an arm from which food had already been retrieved in the pre-delay component of the trial, or if it re-visits an arm in the post-delay session that had already been visited. A fewer number of errors would indicate better spatial memory. The number of errors made by the test subject, under various test compound treatment regimes, can then be compared for efficacy of the test compound in treating cognitive impairment associated with CNS disorders.

CC[C@@H](C(N)=O)N1C[C@H](C=C(F)F)CC1=O [seletracetam]
number of errors in the retention phase, effect as a function of dose (aged-impaired rats [1]): significant effect as a function of dose

C#Cc1ccc2c(c1)C(c1ccccc1F)=N[C@H](C)c1c(C(=O)OCC)ncn1-2 [SH-053-2′F-R-CH3]
number of spontaneously active DA neurons in the ventral tegmental area (VTA) (MAM-treated rats; MAM rats, administered systemically or infused into the ventral HPC, to levels of saline-treated rats): reduces the number of spontaneously active DA neurons | increased locomotor response to amphetamine (MAM-treated rats; MAM-treated rats): reduced | cortical-evoked responses of HPC neurons (MAM-treated rats; saline-treated and MAM-treated animals): diminished cortical-evoked responses

CCC[C@@H]1CC(=O)N([C@@H](CC)C(N)=O)C1 [brivaracetam]
number of errors in the retention phase, effect as a function of dose (aged-impaired rats [1]): significant effect as a function of dose | spatial bias for the target quadrant compared to the other quadrants (probe test) (aged-impaired rats [2]; 14 days, n=3/group, t(2)=10.000, p=0.010): significant spatial bias for the target quadrant | time in the target annulus vs vehicle-treated rats (aged-impaired rats [2]; t(4)=3.109, p=0.036): significantly more time in the target annulus | time in the target quadrant vs vehicle-treated rats (aged-impaired rats [2]; t(4)=3.881, p=0.018): significantly more time in the target quadrant

NC1=N[C@H](O)[C@H]2[C@H]3O[C@]4(O)O[C@@H]([C@@H](O)[C@@]2(N1)[C@@H]4O)[C@]3(O)CO [tetrodotoxin]
augmented amphetamine-induced locomotor behavior (MAM-treated rats; rat, in vivo): normalized the augmented amphetamine-induced locomotor behavior | elevated DA neuron population activity (MAM-treated rats; rat, in vivo): completely reversed the elevated DA neuron population activity

COc1cc2c(cc1OC)C(=O)C(CC1CCN(Cc3ccccc3)CC1)C2 (stereo not drawn) [donepezil, 2,3-dihydro-5,6-dimethoxy-2-((1-(phenylmethyl)-4-piperidinyl)methyl)-1H-inden-1-one]
average no. of errors±SEM (aged-impaired rats (AI)): 2.81±0.43 | average no. of errors±standard error of the mean (SEM) (aged-impaired rats (AI)): 2.88±0.46
